Measurements taken from PubChem BioAssay AID330 (DTP/NCI, 2004).
Values joined by “and” are separate entries in the source; they are usually repeats but may differ in a detail not shown here. Equal values may be shown once. Toxic doses and inconclusive results are not listed.

System: P388 leukemia ip, CD2F1 mice, survival T/C
Experiment: NCI In Vivo Anticancer Drug Screen. Data for tumor model P388 Leukemia (intraperitoneal) in CD2F1 (CDF1) mice
Conditions: endpoint: median survival time, higher = longer survival
Outline: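 Mice carrying the transplanted tumor received test compound or vehicle. Survival was recorded in each group, and the value is the treated-group measurement divided by that of the vehicle-treated control group.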

[1] = dose: 50.0 mg/kg/injection, schedule: Q01DX009 (ip), vehicle: Klucel (hydroxypropylcellulose) (HPC)
[2] = dose: 50.0 mg/kg/injection, schedule: Q01DX009 (ip), vehicle: saline with Tween-80
[3] = dose: 100.0 mg/kg/injection, schedule: Q01DX009 (ip), vehicle: saline with Tween-80
[4] = dose: 200.0 mg/kg/injection, schedule: Q01DX009 (ip), vehicle: saline with Tween-80
[5] = dose: 50.0 mg/kg/injection, schedule: Q01DX005 (ip), vehicle: saline
[6] = dose: 100.0 mg/kg/injection, schedule: Q01DX009 (ip), vehicle: Klucel (hydroxypropylcellulose) (HPC)
[7] = dose: 200.0 mg/kg/injection, schedule: Q01DX009 (ip), vehicle: Klucel (hydroxypropylcellulose) (HPC)
[8] = dose: 50.0 mg/kg/injection, schedule: Q01DX005 (ip), vehicle: saline with Tween-80
[9] = dose: 100.0 mg/kg/injection, schedule: Q01DX005 (ip), vehicle: saline with Tween-80
[10] = dose: 200.0 mg/kg/injection, schedule: Q01DX005 (ip), vehicle: saline with Tween-80
[11] = dose: 12.5 mg/kg/injection, schedule: Q01DX005 (ip), vehicle: saline with Tween-80
[12] = dose: 25.0 mg/kg/injection, schedule: Q01DX005 (ip), vehicle: saline with Tween-80

ClC1CC[N-]CC1.ClC1CC[N-]CC1.[Cl][Pt+2]([Cl])([Cl])[Cl]
T/C (dose: 1.56 mg/kg/injection, schedule: Q01DX009 (ip), vehicle: saline): 100 % of control
T/C (dose: 3.13 mg/kg/injection, schedule: Q01DX009 (ip), vehicle: saline): 108 % of control
T/C (dose: 6.25 mg/kg/injection, schedule: Q01DX009 (ip), vehicle: Klucel (hydroxypropylcellulose) (HPC)): 166 % of control
T/C (dose: 12.5 mg/kg/injection, schedule: Q01DX009 (ip), vehicle: Klucel (hydroxypropylcellulose) (HPC)): 192 % of control
T/C (dose: 12.5 mg/kg/injection, schedule: Q01DX009 (ip), vehicle: saline): 153 % of control
T/C (dose: 25.0 mg/kg/injection, schedule: Q01DX009 (ip), vehicle: Klucel (hydroxypropylcellulose) (HPC)): 245 % of control
T/C (dose: 25.0 mg/kg/injection, schedule: Q01DX009 (ip), vehicle: saline): 172 % of control
T/C [1]: 113 % of control

CCN(CC)c1ccc2cc(-c3nc4ccccc4n3C)c(=O)oc2c1
T/C (dose: 200.0 mg/kg/injection, schedule: Q04DX003 (ip), vehicle: Klucel (hydroxypropylcellulose) (HPC)): 183 % of control

COC(=O)C1=C/C=C\CN(CCC2OCC(CBr)O2)/C=C\1C(=O)OC (stereo unspecified)
T/C (dose: 100.0 mg/kg/injection, schedule: Q01DX001 (ip), vehicle: alcohol): 95 % of control
T/C (dose: 200.0 mg/kg/injection, schedule: Q01DX001 (ip), vehicle: alcohol): 100 % of control
T/C (dose: 400.0 mg/kg/injection, schedule: Q01DX001 (ip), vehicle: alcohol): 100 % of control

CC1=NN(C(=O)c2ccncc2)C(=O)C1N=Nc1ccc(S(=O)(=O)Nc2nc(C)cc(C)n2)cc1 (stereo unspecified)
T/C [2]: 104 % of control
T/C [3]: 95 % of control
T/C [4]: 95 % of control

CC(=O)C(Cl)C(=O)c1c(C)[nH]n(-c2ccccc2)c1=O (stereo unspecified)
T/C (dose: 50.0 mg/kg/injection, schedule: Q01DX005 (ip), vehicle: Klucel (hydroxypropylcellulose) (HPC)): 110 % of control
T/C (dose: 100.0 mg/kg/injection, schedule: Q01DX005 (ip), vehicle: Klucel (hydroxypropylcellulose) (HPC)): 123 % of control

COc1ccc2c(c1)[C@]1(C)CCN(C)[C@@H]1N2C
T/C (dose: 12.5 mg/kg/injection, schedule: Q01DX005 (ip), vehicle: saline): 105 % of control
T/C (dose: 25.0 mg/kg/injection, schedule: Q01DX005 (ip), vehicle: saline): 98 % of control
T/C [5]: 105 % of control

CCCCCCCCCCCCCCN1CCS(=O)(=O)CC1
T/C [1]: 89 % of control
T/C [6]: 91 % of control
T/C [7]: 90 % of control

COC(=O)c1nc(=S)[nH]c(C(=O)OC)c1C(=O)c1cccnc1
T/C (dose: 60.0 mg/kg/injection, schedule: Q01DX005 (ip), vehicle: saline): 108 % of control
T/C (dose: 120.0 mg/kg/injection, schedule: Q01DX005 (ip), vehicle: saline): 110 % of control

CCN(CC)c1ccc2nc3ccc(N=Nc4c(O)ccc5ccccc45)cc3[n+](-c3ccccc3)c2c1
T/C (dose: 0.75 mg/kg/injection, schedule: Q01DX005 (ip), vehicle: saline with Tween-80): 115 % of control
T/C (dose: 1.5 mg/kg/injection, schedule: Q01DX005 (ip), vehicle: saline with Tween-80): 120 % of control
T/C (dose: 3.0 mg/kg/injection, schedule: Q01DX005 (ip), vehicle: saline with Tween-80): 120 % of control
T/C (dose: 6.0 mg/kg/injection, schedule: Q01DX005 (ip), vehicle: saline with Tween-80): 90 % of control

FS(F)(F)(F)(F)c1cccc(NC(=S)SCc2ccc3c(c2)OCO3)c1
T/C (dose: 50.0 mg/kg/injection, schedule: Q01DX009 (ip), vehicle: suspension in saline): 102 % of control
T/C (dose: 100.0 mg/kg/injection, schedule: Q01DX009 (ip), vehicle: suspension in saline): 106 % of control
T/C (dose: 200.0 mg/kg/injection, schedule: Q01DX009 (ip), vehicle: suspension in saline): 102 % of control

COC(=O)N[Si](C)(C)C
T/C (dose: 50.0 mg/kg/injection, schedule: Q01DX009 (ip), vehicle: saline): 93 % of control
T/C (dose: 100.0 mg/kg/injection, schedule: Q01DX009 (ip), vehicle: saline): 98 % of control
T/C (dose: 200.0 mg/kg/injection, schedule: Q01DX009 (ip), vehicle: saline): 100 % of control

Cc1noc(/C=C\c2ccccc2O)c1[N+](=O)[O-]
T/C [8]: 92 % of control
T/C [9]: 99 % of control
T/C [10]: 97 % of control

COc1ccc(C2=CC(c3ccc(OC)cc3)(c3ccc(C(F)(F)F)cc3)C=C(c3ccc(OC)cc3)S2)cc1
T/C [1]: 97 % of control
T/C [6]: 93 % of control
T/C [7]: 90 % of control

CC(=O)OCC(=O)[C@@]1(O)CC[C@H]2[C@@H]3C[C@@H](C)C4=CC(=O)C=C[C@]4(C)[C@H]3[C@@H](O)C[C@@]21C
T/C [3]: 100 % of control
T/C [4]: 100 % of control
T/C (dose: 400.0 mg/kg/injection, schedule: Q01DX009 (ip), vehicle: saline with Tween-80): 100 % of control

Cc1ccc(C(=O)Cc2nc3nnc(N)n3nc2CC(=O)c2ccc(C)cc2)cc1
T/C [5]: 97 % of control
T/C (dose: 100.0 mg/kg/injection, schedule: Q01DX005 (ip), vehicle: saline): 100 % of control
T/C (dose: 200.0 mg/kg/injection, schedule: Q01DX005 (ip), vehicle: saline): 97 % of control

C=Cc1c2[n-]c(c1C)/C=C1\[N-]/C(=C3\c4[n-]c(c(C)c4C(=O)C3C(=O)O)/C=c3\[n-]/c(c(C)c3CC)=C\2)C(CCC(=O)O)C1C.[Pt+4] (stereo unspecified)
T/C (dose: 50.0 mg/kg/injection, schedule: Q04DX002 (ip), vehicle: saline): 100 % of control
T/C (dose: 100.0 mg/kg/injection, schedule: Q04DX002 (ip), vehicle: saline): 90 % of control
T/C (dose: 200.0 mg/kg/injection, schedule: Q04DX002 (ip), vehicle: saline): 88 % of control

O=CNC(Cc1ccccc1)C(=O)O (stereo unspecified)
T/C [8]: 94 % of control
T/C [9]: 102 % of control

COc1cc(O)c2c(c1)C(O)C(O)CC1OC1C(=O)/C=C/CC(C)OC2=O (stereo unspecified)
T/C (dose: 1.56 mg/kg/injection, schedule: Q01DX005 (ip), vehicle: saline with Tween-80): 115 % of control
T/C (dose: 3.12 mg/kg/injection, schedule: Q01DX005 (ip), vehicle: saline with Tween-80): 107 % of control
T/C (dose: 6.25 mg/kg/injection, schedule: Q01DX005 (ip), vehicle: saline with Tween-80): 107 % of control
T/C [11]: 114 % of control

COc1cccc2c1C(=O)c1c(O)c3c(c(O)c1C2=O)C[C@@](O)(C(C)O)C[C@@H]3OC1CC(N(C)C)C(O)C(C)O1 (stereo partly specified)
T/C (dose: 0.78 mg/kg/injection, schedule: Q01DX009 (ip), vehicle: water): 152 % of control
T/C (dose: 1.56 mg/kg/injection, schedule: Q01DX009 (ip), vehicle: water): 159 % of control and 161 % of control
T/C (dose: 2.35 mg/kg/injection, schedule: Q04DX003 (ip), vehicle: water): 107 % of control
T/C (dose: 3.13 mg/kg/injection, schedule: Q01DX009 (ip), vehicle: water): 165 % of control and 172 % of control
T/C (dose: 6.25 mg/kg/injection, schedule: Q01DX009 (ip), vehicle: water): 198 % of control and 209 % of control
T/C (dose: 9.4 mg/kg/injection, schedule: Q04DX003 (ip), vehicle: water): 111 % of control
T/C (dose: 75.0 mg/kg/injection, schedule: Q04DX003 (ip), vehicle: water): 108 % of control

S=C1SCN(c2ccc3c(c2)OCO3)CN1c1ccc2c(c1)OCO2
T/C [1]: 96 % of control
T/C [6]: 100 % of control
T/C [7]: 96 % of control

C=C1C(=O)OC2CC3(C)OC3CC/C(C)=C/C(OC(C)=O)C12 (stereo unspecified)
T/C [11]: 111 % of control
T/C [12]: 111 % of control
T/C [8]: 111 % of control and 112 % of control

CSC(=S)N/N=C(\Cc1ccccc1)c1ccccn1
T/C [11]: 103 % of control
T/C [12]: 106 % of control
T/C [8]: 99 % of control and 108 % of control
T/C [9]: 107 % of control
T/C [10]: 107 % of control

CCN(Cc1cc(Nc2ccnc3cc(Cl)ccc23)ccc1O)C(=O)N1CCN(C)CC1
T/C (dose: 100.0 mg/kg/injection, schedule: Q04DX002 (ip), vehicle: Klucel (hydroxypropylcellulose) (HPC)): 100 % of control
T/C (dose: 200.0 mg/kg/injection, schedule: Q04DX002 (ip), vehicle: Klucel (hydroxypropylcellulose) (HPC)): 96 % of control
T/C (dose: 400.0 mg/kg/injection, schedule: Q04DX002 (ip), vehicle: Klucel (hydroxypropylcellulose) (HPC)): 96 % of control

NOCc1ccc(CON)cc1
T/C [2]: 95 % of control
T/C [3]: 95 % of control
T/C [4]: 91 % of control

O=[N+]([O-])c1ccc(SSc2ccc([N+](=O)[O-])cn2)nc1
T/C (dose: 25.0 mg/kg/injection, schedule: Q01DX009 (ip), vehicle: saline with Tween-80): 104 % of control
T/C [2]: 86 % of control
T/C [3]: 95 % of control

CCCCN(CCCC)CCC(C)(O)c1cccc2ccccc12 (stereo unspecified)
T/C [12]: 98 % of control
T/C [8]: 108 % of control
T/C [9]: 92 % of control
